From patent US5580982A, “Substituted 3-(aminoalkylamino)-1,2-benzisoxazoles and related compounds” (priority 1995, dated 1996)

What was measured:
MAO-B = biological target: T1, MAO-B (Rattus norvegicus, UniProt P19643); assay: Inhibition of Type B monoamine oxidase activity in rat brain synaptosomes; assay type: biochemical; conditions: substrate [^14 C]-PEA 200 μM; read-out: Inhibitory Concentration - IC50 MAO-B
T1 construct: the whole brain without cerebellum was dissected rapidly and frozen on dry ice; from tissue; host or cells: whole brain without cerebellum of orally dosed male Wistar rats, homogenate
T1 sequence (P19643 1-520): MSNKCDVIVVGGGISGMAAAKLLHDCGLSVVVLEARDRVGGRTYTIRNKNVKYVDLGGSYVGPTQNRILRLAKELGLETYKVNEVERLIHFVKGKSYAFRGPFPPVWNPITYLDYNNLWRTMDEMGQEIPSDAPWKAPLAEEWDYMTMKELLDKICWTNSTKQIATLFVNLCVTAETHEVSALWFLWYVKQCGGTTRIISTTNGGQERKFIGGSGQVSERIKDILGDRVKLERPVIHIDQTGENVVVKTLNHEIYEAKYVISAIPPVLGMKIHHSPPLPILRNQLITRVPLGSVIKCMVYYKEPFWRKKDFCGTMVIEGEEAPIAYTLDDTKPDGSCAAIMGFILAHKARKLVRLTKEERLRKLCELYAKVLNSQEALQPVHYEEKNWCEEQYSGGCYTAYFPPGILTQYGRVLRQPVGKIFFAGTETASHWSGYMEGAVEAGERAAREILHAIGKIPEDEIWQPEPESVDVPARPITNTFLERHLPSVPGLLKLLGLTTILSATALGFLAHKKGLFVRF
Source text: Male Wistar rats weighing 150-250 grams were sacrificed and the brains rapidly removed.

MAO-A = biological target: T2, MAO-A (Rattus norvegicus, UniProt P21396); assay: Inhibition of Type A monoamine oxidase activity in rat brain synaptosomes; assay type: biochemical; conditions: substrate [^3 H]-5HT 200 μM; read-out: Inhibitory Concentration - IC50 MAO-A
T2 construct: the whole brain without cerebellum was dissected rapidly and frozen on dry ice; from tissue; host or cells: whole brain without cerebellum of orally dosed male Wistar rats, homogenate
T2 sequence (P21396 1-526): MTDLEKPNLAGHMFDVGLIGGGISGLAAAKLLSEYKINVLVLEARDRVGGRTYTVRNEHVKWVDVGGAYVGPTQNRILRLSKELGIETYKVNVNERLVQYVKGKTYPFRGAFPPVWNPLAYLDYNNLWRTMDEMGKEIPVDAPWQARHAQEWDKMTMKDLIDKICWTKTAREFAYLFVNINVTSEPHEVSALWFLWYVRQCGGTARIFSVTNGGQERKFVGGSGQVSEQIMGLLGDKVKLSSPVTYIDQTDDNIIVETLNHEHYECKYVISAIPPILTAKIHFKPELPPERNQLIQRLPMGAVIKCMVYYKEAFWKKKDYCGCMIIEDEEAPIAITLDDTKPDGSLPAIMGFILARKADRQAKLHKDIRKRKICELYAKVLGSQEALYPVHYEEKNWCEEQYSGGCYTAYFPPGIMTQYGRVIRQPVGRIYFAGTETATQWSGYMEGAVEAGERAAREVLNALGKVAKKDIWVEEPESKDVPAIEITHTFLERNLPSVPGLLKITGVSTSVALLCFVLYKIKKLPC
Procedure: Inhibition of Type A and Type B Monoamine Oxidase Activity in Rat Brain Synaptosomes
To determine the selective inhibition of the two forms of monoamine oxidase (MAO).
Although various methods for measuring MAO activity are available, the described method involves the extraction of the radiolabeled deaminated metabolites of [^3 H]-5HT or [^14 C]-β-phenethylamine. This procedure allows MAO-A and MAO-B activities to be measured either simultaneously or individually (3).
c. Add 12 μl of [^3 H]-5HT to 2 ml of the 5 mM 5HT solution. (Final amine concentration in the assay is 200 μM: see below.)
5. Equal amounts of MAO-A (5HT) and MAO-B (PEA) substrates are combined for simultaneously testing both MAO types, i.e. mixed stock solution of 2.5 mM 5HT and 2.5 mM PEA, 40 μl of this mixed solution gives a 200 μM final concentration of each amine in the assay. When testing only one MAO type, the individual 5 mM stock solutions must be diluted 1:1 with distilled water prior to adding 40 μl to the incubation mixture; i.e., same 200 μM final amine concentration.
Male Wistar rats weighing 150-250 grams were sacrificed and the brains rapidly removed. Whole brain minus cerebellum was homogenized in 30 volumes of ice-cold, phosphate-buffered 0.25M sucrose, using a Potter-Elvejhem homogenizer. The homogenate was centrifuged at 1000 g for 10 minutes and the supernatant (S1) decanted and recentrifuged at 18,000 g for 20 minutes. The resulting pellet (P2) was resuspended in fresh 0.25M sucrose and served as the tissue source for mitochondrial MAO.
Tubes are preincubated for 15 minutes at 37° C. and the assay is started by adding 40 μl of combined substrate ([^3 H]-5HT and [^14 C]-PEA) at 15 second intervals. The tubes are incubated for 30 minutes at 37° C. and the reaction stopped by the addition of 0.3 ml 2N HCl. Tissue blank values are determined by adding the acid before the radioactive substrate. The oxidative products of the reaction are extracted with ethyl acetate/toluene (1:1). 5 ml of this mixture is added to the tubes. The resultant mixture is vortexed for 15 seconds to extract the deaminated metabolites into the organic phase and the latter is allowed to separate from the aqueous phase. The tubes are placed in acetone/dry ice bath to freeze the aqueous layer. When this layer is frozen, the top organic layer is poured into a scintillation vial. 10 ml of Liquiscint is added and the samples are counted using window settings for ^14 C in one channel and ^3 H in the second channel. IC50 values are determined by log-probit analysis.

| Structure (SMILES) | IC50 (MAO-B) | IC50 (MAO-A) |
| --- | --- | --- |
| COc1ccc2c(N3CCN(c4ccncc4)CC3)noc2c1 [6-Methoxy-3-[1-(4-pyridyl)piperazinyl)]-1,2-benzisoxazole] | 45 µM | 10 µM |
| COc1ccc2c(N(C)CCN3CCOCC3)noc2c1 [6-Methoxy-N-methyl-N-[2-(4-morpholinyl)ethyl]-1,2-benzisoxazol-3-amine] | > 1000 µM | 13 µM |
